Measured values taken from patent publication US9102622B2 (University of Connecticut, priority 2006, dated 2015).
Like-named read-outs stand apart in the source and are kept apart here.

Target: fatty acid amide hydrolase (FAAH) (Rattus norvegicus (Rat), UniProt P97612)
Test: FAAH enzyme assay: inhibition of anandamide (AEA) hydrolysis, arachidonic acid quantified by HPLC
Assay type: biochemical
Settings: for inhibition at 100 µM: inhibitor 100 μM, partially purified rat brain FAAH, 15 min, read-out: % Inhibition (Concentration)
Experimental: The resulting supernatant is injected onto the HPLC.

[1] = eight-point assay, anandamide hydrolysis by FAAH, read-out: IC50
[2] = eight-point assay, calculated with Prizm software, read-out: Ki

Sequence of fatty acid amide hydrolase (FAAH) (P97612 whole entry): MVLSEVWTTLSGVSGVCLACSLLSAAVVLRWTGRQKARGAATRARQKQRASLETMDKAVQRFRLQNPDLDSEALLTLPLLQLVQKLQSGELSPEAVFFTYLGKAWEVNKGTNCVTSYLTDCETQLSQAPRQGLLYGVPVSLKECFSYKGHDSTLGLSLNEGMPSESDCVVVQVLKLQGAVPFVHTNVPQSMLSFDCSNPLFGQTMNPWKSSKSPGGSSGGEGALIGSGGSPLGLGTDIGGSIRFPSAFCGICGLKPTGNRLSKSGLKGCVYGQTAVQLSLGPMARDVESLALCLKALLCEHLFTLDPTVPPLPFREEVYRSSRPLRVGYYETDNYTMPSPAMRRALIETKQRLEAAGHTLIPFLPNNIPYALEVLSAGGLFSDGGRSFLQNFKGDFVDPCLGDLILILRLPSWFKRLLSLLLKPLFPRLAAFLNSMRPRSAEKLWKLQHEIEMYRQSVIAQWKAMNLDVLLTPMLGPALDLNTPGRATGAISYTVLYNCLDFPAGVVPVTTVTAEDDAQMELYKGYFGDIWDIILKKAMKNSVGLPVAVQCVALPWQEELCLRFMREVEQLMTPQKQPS

Row | SMILES | inhibition at 100 µM (one-point assay) [%] | IC50 [1] [µM] | Ki [2] [µM] | % Inhibition (Concentration) (one-point assay, concentration not given) [%] | IC50 [µM] | Ki [µM]
1 | O=S(=O)(F)CCCc1ccccc1 [Compound 4.1, 3-Phenyl-propanesulfonyl fluoride, reference compound] | 19 |  |  |  |  | 
2 | O=S(=O)(F)CCCCCCCc1ccccc1 [Compound 4.2, 7-Phenyl-heptanesulfonyl fluoride, reference compound] | 31 |  |  |  |  | 
3 | O=S(=O)(F)CCCCCCCCc1ccccc1 [Compound 4.3, 8-Phenyl-octanesulfonyl fluoride, reference compound] |  |  |  | 24 |  | 
4 | O=S(=O)(Cl)CCCCCCCc1cccc(OCc2ccccc2)c1 [Compound 12.2, 7-(3-Benzyloxy-phenyl)-heptanesulfonyl chloride] | 97 | 12 | 2.9 |  |  | 
5 | O=S(=O)(Cl)CCCCCCCc1ccccc1OCc1ccccc1 [Compound 12.3, 7-(2-Benzyloxy-phenyl)-heptanesulfonyl chloride] | 97 | 1.75 | 0.41 |  |  | 
6 | O=S(=O)(Cl)CCCCCc1ccc(OCc2ccccc2)cc1 [Compound 12.4, 5-(4-Benzyloxy-phenyl)-pentanesulfonyl chloride] | 95 |  |  |  |  | 
7 | O=S(=O)(F)CCCCCCCc1cccc(OCc2ccccc2)c1 [Compound 13.2, 7-(3-Benzyloxy-phenyl)-heptanesulfonyl fluoride] | 97 |  |  |  |  | 
8 | O=S(=O)(F)CCCCCCCc1ccccc1OCc1ccccc1 [Compound 13.3, 7-(2-Benzyloxy-phenyl)-heptanesulfonyl fluoride] | 100 |  |  |  | 0.193 | 0.046
9 | O=S(=O)(F)CCCCCCCc1cccc(O)c1 [Compound 14.2, 7-(3-Hydroxy-phenyl)-heptanesulfonyl fluoride] | 99 | 0.113 | 0.026 |  |  | 
10 | O=S(=O)(F)CCCCCCCc1ccccc1O [Compound 14.3, 7-(2-Hydroxy-phenyl)-heptanesulfonyl fluoride] | 100 | 0.054 | 0.013 |  |  | 
11 | O=C(c1cccc(-c2cccc(OCc3ccccc3)c2)c1)C(F)(F)F [Compound 30] | 33 |  |  |  |  | 
12 | O=C(Cc1cccc(-c2cccc(OCc3ccccc3)c2)c1)C(F)(F)F [Compound 35, 1,1,1-Trifluoro-3-(3-benzyloxy-biphenyl-3-yl)-2-propanone] | 54 |  |  |  |  | 
13 | CCCCCc1cc(OC)c(-c2ccc(C(=O)C(F)(F)F)cc2)c(OC)c1 [Compound 39.2, 1-(2′,6′-Dimethoxy-4′-pentylbiphenyl-4-yl)-2,2,2-trifluoroethanone] | 57 |  |  |  |  | 
14 | CCCCCCC(C)(C)c1cc(O)c(-c2ccc(C(=O)C(F)(F)F)cc2)c(O)c1 [Compound 40.1, 1-(2′,6′-dihydroxy-4′-(2-methyloctan-2-yl)biphenyl-4-yl)-2,2,2-trifluoroethanone] | 36 |  |  |  |  | 
15 | O=C(Nc1ccc(I)cc1)Oc1ccccc1 [Compound 48.6, (4-Iodophenyl)carbamic acid phenyl ester] | 84 |  |  |  |  | 

Further lines, with some results ahead:

Row | inhibition at 100 µM (one-point assay) [%] | IC50 [1] [µM] | Ki [2] [µM] | SMILES | % Inhibition (Concentration) (one-point assay, concentration not given) [%] | IC50 [µM] | Ki [µM]
16 | 93 | 6.9 | 0.77 | O=C(CCCOc1cccc(OCc2ccccc2)c1)C(F)(F)F [Compound 23.5, 1,1,1-Trifluoro-5-[3-(Benzyloxy)phenoxy]-2-pentanone] |  |  | 
17 | 97 | 6.6 | 0.47 | O=C(CCCCOc1cccc(OCc2ccccc2)c1)C(F)(F)F [Compound 23.6, 1,1,1-Trifluoro-6-[3-(Benzyloxy)phenoxy]-2-hexanone] |  |  | 
18 | 96 | 0.47 | 0.052 | O=C(CCCCCOc1cccc(OCc2ccccc2)c1)C(F)(F)F [Compound 23.7, 1,1,1-Trifluoro-7-[3-(Benzyloxy)phenoxy]-2-heptanone] |  |  | 
19 | 97 | 0.66 | 0.046 | O=C(CCCCOc1ccccc1OCc1ccccc1)C(F)(F)F [Compound 23.9, 1,1,1-Trifluoro-6-[2-(Benzyloxy)phenoxy]-2-hexanone] |  |  | 
20 | 79 | 11.2 | 1.2 | O=C(CCCOc1ccccc1)C(F)(F)F [Compound 23.11, 1,1,1-Trifluoro-5-phenoxy-2-pentanone] |  |  | 
21 | 68 | 14.9 | 1.7 | O=C(CCCOc1ccc(O)cc1)C(F)(F)F [Compound 24.1, 1,1,1-Trifluoro-5-[4-(hydroxy)phenoxy]-2-pentanone] |  |  | 
22 | 86 | 11.4 | 0.8 | O=C(CCCCCOc1ccc(O)cc1)C(F)(F)F [Compound 24.3, 1,1,1-Trifluoro-7-[4-(hydroxy)phenoxy]-2-heptanone] |  |  | 
23 | 79 | 22.8 | 2.5 | Oc1cccc(OCCCC(O)(O)C(F)(F)F)c1 [Compound 24.5, 1,1,1-Trifluoro-2,2-dihydroxy-5-[3-(hydroxy)phenoxy]pentane] |  |  | 
24 | 85 | 29.4 | 2.07 | O=C(CCCCOc1cccc(O)c1)C(F)(F)F [Compound 24.6, 1,1,1-Trifluoro-6-[3-(hydroxy)phenoxy]-2-hexanone] |  |  | 
25 |  | 5.02 | 0.44 | O=C(CCCCCOc1cccc(O)c1)C(F)(F)F [Compound 24.7, 1,1,1-Trifluoro-7-[3-(hydroxy)phenoxy]-2-heptanone] |  |  | 
26 | 43 | 138 | 15.3 | O=C(CCCOc1ccccc1O)C(F)(F)F [Compound 24.8, 1,1,1-Trifluoro-5-[2-(hydroxy)phenoxy]-2-pentanone] |  |  | 
27 | 82 | 26.2 | 1.8 | O=C(CCCCCOc1ccccc1O)C(F)(F)F [Compound 24.10, 1,1,1-Trifluoro-7-[2-(hydroxy)phenoxy]-2-heptanone] |  |  | 
28 | 46 | 69.4 | 4.6 | O=C(CCCc1ccccc1)C(F)(F)F [Compound 27.1, 1,1,1-Trifluoro-5-phenyl-2-pentanone] |  |  | 
29 | 53 | 18.8 | 2.1 | O=C(CCCCc1ccccc1)C(F)(F)F [Compound 27.2, 1,1,1-Trifluoro-6-phenyl-2-hexanone] |  |  | 
30 | 83 | 11.1 | 1.23 | O=C(CCCCCc1ccccc1)C(F)(F)F [Compound 27.3, 1,1,1-Trifluoro-7-phenyl-2-heptanone, reference compound] |  |  | 
31 | 82 | 6.9 | 0.6 | COc1ccc(CCCCC(=O)C(F)(F)F)cc1 [Compound 27.4, 1,1,1-Trifluoro-6-(4-methoxy-phenyl)-2-hexanone] |  |  | 
32 | 81 |  |  | CCCCCCc1ccc(O)c(-c2ccc(C(=O)C(F)(F)F)cc2)c1OC [Compound 40.3, 2,2,2-Trifluoro-1-(3′-hexyl-6′-hydroxy-2′-methoxybiphenyl-4-yl)ethanone] |  |  | 
33 | 25 |  |  | O=C(Nc1ccc(Br)cc1)OC1CCCCC1 [Compound 48.1, (4-Bromophenyl)carbamic acid cyclohexyl ester] |  |  | 
34 | 84 | 4 | 1.2 | CCOC(=O)Nc1ccc(Br)cc1 [Compound 48.2] |  |  | 
35 | 36 |  |  | O=C(Nc1ccc(Br)cc1)OCc1ccccc1 [Compound 48.3, (4-Bromophenyl)carbamic acid benzyl ester] |  |  | 
36 | 56 |  |  | O=C(Nc1ccc(Br)cc1)OC12CC3CC(CC(C3)C1)C2 [Compound 48.4] |  |  | 
